This is an account of results in patent US20060264460A1 (Wyeth, priority 2005, published 2006).

One experiment deals with T1, human Cot/Tpl2 kinase (Homo sapiens, UniProt P41279).
T1 construct: human Cot/Tpl2 kinase construct encoding residues 30-398; 6His (N); made in house; host or cells: Sf9 insect cells, baculovirus system (BD Biosciences)
T1 sequence (P41279 30-398): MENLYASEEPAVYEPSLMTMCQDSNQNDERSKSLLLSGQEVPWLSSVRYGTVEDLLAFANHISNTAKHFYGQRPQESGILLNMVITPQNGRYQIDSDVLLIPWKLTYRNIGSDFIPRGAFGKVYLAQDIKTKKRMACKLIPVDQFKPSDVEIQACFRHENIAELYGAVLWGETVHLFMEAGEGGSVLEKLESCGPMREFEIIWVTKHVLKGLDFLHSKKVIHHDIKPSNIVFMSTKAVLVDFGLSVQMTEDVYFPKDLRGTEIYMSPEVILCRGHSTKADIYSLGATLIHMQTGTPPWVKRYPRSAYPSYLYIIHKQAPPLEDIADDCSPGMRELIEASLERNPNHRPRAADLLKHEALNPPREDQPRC
Briefly: Tpl2/Cot kinase assay: GST-MEK1 phosphorylation detected by ELISA (DELFIA Eu). Particulars: 0.4 nM Tpl2, 35 nM GST-MEK1, 50 uM ATP, 1 h at 30° C. Format: biochemical. As for the experimental part: Sf9 cells expressing the kinase were lysed in 50 mM NaPhosphate pH=8; 300 mM NaCl; 5 mM imidazole; 0.1 mM EGTA; 25 mM beta-glycerophosphate; 1% TX-100, 1% glycerol; 6 mM beta-mercaptoethanol and protease inhibitors. The lysate was clarified by centrifugation and was loaded onto a Ni-Sepharose column. The column was washed with 50 mM NaPhosphate pH=8; 300 mM NaCl; 15 mM imidazole; 1% glycerol; and 6 mM beta-mercaptoethanol. His-Tpl2 was eluted with 50 mM NaPhosphate pH=8; 300 mM NaCl; 250 mM imidazole; 1% glycerol; and 6 mM beta-mercaptoethanol. The eluted protein was further purified by size exclusion chromatography. Fractions corresponding to monomeric Tpl2 were then used in the assay.
Tpl2/Cot activity was directly assayed using GST-MEK1 as a substrate. GST-MEK1 phosphorylation on serine residues 217 and 221 was detected by ELISA. 0.4 nM Tpl2 was incubated with 35 nM GST-MEK1 in a kinase reaction buffer containing 20 mM MOPS pH=7.2; 50 uM ATP; 20 mM MgCl2; 1 mM DTT; 25 mM β-glycerophosphate; 5 mM EGTA; and 1 mM sodium orthovanadate for 1 h at 30° C. The compounds of the inventions solubilized in 100% DMSO were pre-diluted in assay buffer so that the final concentration of DMSO in the reaction was 1%. The kinase reaction was carried out in 100 ul volume on 96 well plates. The kinase reaction was then stopped with the addition of 100 mM EDTA. […] After a 1 hour incubation at room temperature, the detection plate was washed 4 times with TBST (TBS+0.05% Tween 20) and then incubated for another hour at room temperature with anti phospho-MEK1 antibody (Cell Signaling) 1:1000 in 10 mM MOPS 7.5; 150 mM NaCl; 0.05% Tween 20; 0.1% Gelatin; 0.02% NaN3; and 1% BSA. The detection plate was washed again and incubated for 30 min with DELFIA Europium (Eu) labeled goat anti-rabbit IgG (Perkin-Elmer), 1:4000 in the same buffer used for the primary incubation. After a final wash, Eu detection solution was added to each well and the Eu signal was measured in a Wallac Victor^2 Multilabel Counter. IC50 calculations were performed using the XLfit software package (IDBS, Guildford, UK).
Usually IC50 stands for the midpoint of a concentration-inhibition curve. Read a high IC50 as weaker potency in that assay. Turning to `N#Cc1cnc2c(C(F)(F)F)cc(NCc3cccc(Br)n3)cc2c1Nc1ccc(F)c(Cl)c1` [Example 259, 6-{[(6-Bromopyridin-2-yl)methyl]amino}-4-[(3-chloro-4-fluorophenyl)amino]-8-(trifluoromethyl)quinoline-3-carbonitrile], the half-maximal inhibitory concentration (IC50) is over 40000 nM.

In the case of `CC(C)NC(=O)c1cc(NCc2cccnc2)cc2c(Nc3ccc(F)c(Cl)c3)c(C#N)cnc12` [Example 93, 4-(3-chloro-4-fluorophenylamino)-3-cyano-N-isopropyl-6-(pyridin-3-ylmethylamino)quinoline-8-carboxamide], the IC50 was over 40000 nM.

In turn, `N#Cc1cnc2c(CCC(=O)CO)cc(NCc3cnc[nH]3)cc2c1Nc1ccc(F)c(Cl)c1` [Example 310, 4-[(3-chloro-4-fluorophenyl)amino]-8-(4-hydroxy-3-oxybutyl)-6-[(1H-imidazol-5-ylmethyl)amino]quinoline-3-carbonitrile] gave an IC50 of 150 nM.

As to `N#Cc1cnc2c(F)cc(NCc3ccn[nH]3)cc2c1Nc1ccc(F)c(Cl)c1` [Example 267, 4-[(3-chloro-4-fluorophenyl)amino]-8-fluoro-6-[(1H-pyrazol-5-ylmethyl)amino]quinoline-3-carbonitrile], the half-maximal inhibitory concentration (IC50) amounted to 100 nM.

`N#Cc1cnc2ccc(NCc3nccn3CCN3CCOCC3)cc2c1Nc1ccc(F)c(Cl)c1` [Example 22, 4-(3-Chloro-4-fluoro-phenylamino)-6-{[1-(2-morpholin-4-yl-ethyl)-1H-imidazol-2-ylmethyl]-amino}-quinoline-3-carbonitrile] displayed an IC50 of 68 nM.

As to `N#Cc1cnc2ccc(NC(=O)c3ccccc3)cc2c1Nc1ccc(F)c(Cl)c1` [Example 1, N-[4-(3-Chloro-4-fluoro-phenylamino)-3-cyano-quinolin-6-yl]-benzamide], the IC50 worked out at 11000 nM.

In turn, `N#Cc1cnc2c(Br)cc(NCc3cn(CCN)nn3)cc2c1Nc1ccc(F)c(Cl)c1` [Example 304, 6-{[1-(2-Amino-ethyl)-1H-[1,2,3]triazol-4-ylmethyl]-amino}-8-bromo-4-(3-chloro-4-fluoro-phenylamino)-quinoline-3-carbonitrile] returned an IC50 of 17 nM.

For `N#Cc1cnc2c(Cl)cc(NCc3nnn4ccccc34)cc2c1Nc1ccc(F)c(Cl)c1` [Example 216, 6-([1,2,3]triazolo[1,5-a]pyridin-3-ylmethylamino)-8-chloro-4-(3-chloro-4-fluorophenylamino)quinoline-3-carbonitrile], inhibition was half-maximal at 5.9 nM (IC50).

`N#Cc1cnc2c(Cl)cc(NCCN=[N+]=[N-])cc2c1Nc1ccc(F)c(Cl)c1` [Example 210, 6-[(2-azidoethyl)amino]-8-chloro-4-[(3-chloro-4-fluorophenyl)amino]quinoline-3-carbonitrile] showed an IC50 of 1900 nM.

`N#Cc1cnc2ccc(NCc3ccccc3F)cc2c1Nc1ccc(F)c(Cl)c1` [Example 144, 6-(2-fluorobenzylamino)-4-(3-chloro-4-fluorophenylamino)quinoline-3-carbonitrile] showed a concentration for half-maximal inhibition (IC50) of 920 nM.

On to `COc1ccc(Cn2cc(CNc3cc(Br)c4ncc(C#N)c(Nc5ccc(F)c(Cl)c5)c4c3)nn2)cc1` [Example 289], for which the IC50 worked out at 203 nM.

Regarding `N#Cc1cnc2c(-c3ccoc3)cc(NCc3cccnc3)cc2c1Nc1ccc(F)c(Cl)c1` [Example 102, 4-(3-chloro-4-fluorophenylamino)-8-(furan-3-yl)-6-(pyridin-3-ylmethylamino)quinoline-3-carbonitrile], half-maximal inhibition (IC50) required 1300 nM.

In turn, `COc1ccc(CNc2cc(Cl)c3ncc(C#N)c(Nc4ccc(F)c(Cl)c4)c3c2)cc1OCCN1CCOCC1` [Example 273, 8-Chloro-4-[(3-chloro-4-fluorophenyl)amino]-6-{[4-methoxy-3-(2-morpholin-4-ylethoxy)benzyl]amino}quinoline-3-carbonitrile] returned an IC50 of 83 nM.

As to `N#Cc1cnc2c(Br)cc(NCc3[nH]cnc3C(F)(F)F)cc2c1Nc1ccc(F)c(Cl)c1` [Example 114, 8-bromo-4-(3-chloro-4-fluorophenylamino)-6-((4-(trifluoromethyl)-1H-imidazol-5-yl)methylamino)quinoline-3-carbonitrile], the IC50 was determined as 310 nM.

Staying with this experiment, now noted: Table 2; Tpl2/Cot kinase, GST-MEK1 substrate, 50 uM ATP.
In turn, `CCN1CCC(CCn2cc(CNc3cc(Br)c4ncc(C#N)c(Nc5ccc(F)c(Cl)c5)c4c3)nn2)CC1` [Example 568] yielded an IC50 of 64 nM.

The compound `CCCc1[nH]cnc1CNc1cc(Cl)c2ncc(C#N)c(Nc3ccc(F)c(Cl)c3)c2c1` [Example 443] had a 50% inhibitory concentration (IC50) of 25 nM.

Regarding `N#Cc1cnc2c(Cl)cc(NCc3cncn3O)cc2c1Nc1ccc(F)c(Cl)c1` [Example 438], it took 110 nM to reach half-maximal inhibition (IC50).

`CC(C)(C)Nc1c(C#N)cnc2ccc(NCc3cccc(C#N)c3)cc12` [Example 403] came in with an IC50 of 11500 nM.

`Cc1c(CNc2ccc3ncc(C#N)c(Nc4ccc(F)c(Cl)c4)c3c2)ncn1C` [Example 370]: the IC50 stood at 3.2 nM.

On to `CC(C)(C)OC(=O)N1CCC(Nc2ccc3ncc(C#N)c(Nc4ccc(F)c(Cl)c4)c3c2)CC1` [Example 379], for which the IC50 is over 40000 nM.

For the compound `CCc1nc(C)c(CNc2ccc3ncc(C#N)c(Nc4ccc(F)c(Cl)c4)c3c2)[nH]1` [Example 369], half-maximal inhibition (IC50) was put at 640 nM.

For the compound `N#Cc1cnc2c(Cl)cc(NCC(=O)N3CCNCC3)cc2c1Nc1ccc(F)c(Cl)c1` [Example 470], the midpoint of inhibition, the IC50, lay at 420 nM.

As for `N#Cc1cnc2c(Cl)cc(NCc3cn(Cc4ccc(C(F)(F)F)cc4)nn3)cc2c1Nc1ccc(F)c(Cl)c1` [Example 583], the IC50 was over 3000 nM.

As for `N#Cc1cnc2c(Br)cc(NCc3cn(Cc4cccnc4)cn3)cc2c1Nc1ccc(F)c(Cl)c1` [Example 533], the 50% inhibitory concentration (IC50) turned out to be 3.1 nM.

`Cn1cncc1CNc1cc(Cl)c2ncc(C#N)c(Nc3ccc(F)c(Cl)c3)c2c1` [Example 439] had an IC50 of 220 nM.

As for `N#Cc1cnc2ccc(NCc3cnc[nH]3)cc2c1NC1CCCC1` [Example 417], the midpoint of inhibition, the IC50, lay at 300 nM.

The compound `Cc1c(CNc2ccc3ncc(C#N)c(Nc4ccc(F)c(Cl)c4)c3c2)ncn1CCN1CCOCC1` [Example 373] displayed a concentration for half-maximal inhibition (IC50) of 14 nM.

Staying with this experiment, now noted: Tpl2/Cot kinase, GST-MEK1 substrate, 50 uM ATP.
Consider `CN(C)CCCn1cc(CNc2cc(Br)c3ncc(C#N)c(Nc4ccc(F)c(Cl)c4)c3c2)nn1` [Example 662], for which 20 nM corresponded to half-maximal inhibition (IC50).

In turn, `N#Cc1cnc2c(Cl)cc(NCC(=O)NCc3ccncc3)cc2c1Nc1ccc(F)c(Cl)c1` [Example 772] returned a concentration for half-maximal inhibition (IC50) of 48 nM.

`CC(C)(C)OC(=O)N1CCN(CCCn2cc(CNc3cc(Br)c4ncc(C#N)c(Nc5ccc(F)c(Cl)c5)c4c3)nn2)CC1` [Example 764] came in with an IC50 of 1300 nM.

Compound `N#Cc1cnc2c(Cl)cc(NCc3cn(CC(=O)NC4CC4)nn3)cc2c1Nc1ccc(F)c(Cl)c1` [Example 876] had a 50% inhibitory concentration (IC50) of 1.3 nM.

Consider `N#Cc1cnc2c(Cl)cc(NCC(=O)NCCCN3CCOCC3)cc2c1Nc1ccc(F)c(Cl)c1` [Example 776], for which the half-maximal inhibitory concentration (IC50) was over 3000 nM.

`CCN1CCC[C@H]1CNc1cc(Cl)c2ncc(C#N)c(Nc3ccc(F)c(Cl)c3)c2c1` [Example 809]: the IC50 was found to be 330 nM.

On to `CC(C)S(=O)(=O)NCCCn1cc(CNc2cc(Cl)c3ncc(C#N)c(Nc4ccc(F)c(Cl)c4)c3c2)nn1` [Example 907], for which the IC50 was found to be 4.5 nM.

In turn, `CC(C)NC(=O)Cn1cc(CNc2cc(Cl)c3ncc(C#N)c(Nc4ccc(F)c(Cl)c4)c3c2)nn1` [Example 813] had an IC50 of 3.5 nM.

`N#Cc1cnc2c(Cl)cc(NCc3cn(CC4CCCNC4)nn3)cc2c1Nc1ccc(F)c(Cl)c1` (stereo not drawn) [Example 719] showed an IC50 of 48 nM.

In the case of `CN(CCn1cc(CNc2cc(Br)c3ncc(C#N)c(Nc4ccc(F)c(Cl)c4)c3c2)nn1)C(=O)OC(C)(C)C` [Example 678], half-maximal inhibition (IC50) required 67 nM.

Take `N#Cc1cnc2c(Br)cc(NCc3cn(-c4cc[n+]([O-])cc4)nn3)cc2c1Nc1ccc(F)c(Cl)c1` [Example 748]: the half-maximal inhibitory concentration (IC50) turned out to be 15 nM.

`CC(C)N1CCC(CCn2cc(CNc3cc(Br)c4ncc(C#N)c(Nc5ccc(F)c(Cl)c5)c4c3)nn2)CC1` [Example 738] returned an IC50 of 57 nM.

The experiment is the same for the next values; noted with them: Tpl2/Cot kinase, GST-MEK1 substrate, 50 uM ATP, 1 h at 30° C.; Table 2.
The compound `CC1(O)CCC(n2cc(CNc3cc(Cl)c4ncc(C#N)c(Nc5ccc(F)c(Cl)c5)c4c3)nn2)CC1` (stereo not drawn) [Example 1060] had a half-maximal inhibitory concentration (IC50) of 45 nM.

In turn, `CC(C)N1CCC[C@H]1CCn1cc(CNc2cc(Br)c3ncc(C#N)c(Nc4ccc(F)c(Cl)c4)c3c2)nn1` [Example 942] had a half-maximal inhibitory concentration (IC50) of 19 nM.

As for `N#Cc1cnc2c(Cl)cc(NCc3cn(C4CCN(c5ncccc5C(F)(F)F)CC4)nn3)cc2c1Nc1ccc(F)c(Cl)c1` [Example 1008], 490 nM corresponded to half-maximal inhibition (IC50).
